Measurements as given in ChEMBL document CHEMBL1201862, “PubChem BioAssay data set” (2004).
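How tested: cells in 96-well plates exposed to compound for 48 hours at five concentrations. GI50: concentration for 50% inhibition of growth.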 Active and inactive are the calls of the source. No stated cut-off is given here; in the data, active = GI50 up to about 1.1 µM and inactive = higher.

Legend:
Assay in all cases: inhibition of tumour cell growth, NCI panel, 48 h
SF-268 = system: SF-268
NCI-H522 = system: NCI-H522
HOP-62 = system: HOP-62
UACC-257 = system: UACC-257
NCI-H23 = system: NCI-H23
NCI-H460 = system: NCI-H460
LOX IMVI = system: LOX IMVI
Malme-3M = system: Malme-3M
HCC 2998 = system: HCC 2998
HL-60 = system: HL-60
KM12 = system: KM12
SK-OV-3 = system: SK-OV-3
IGROV-1 = system: IGROV-1
UO-31 = system: UO-31
SF-539 = system: SF-539
NCI-H226 = system: NCI-H226
RPMI-8226 = system: RPMI-8226
CAKI-1 = system: CAKI-1

Measured: GI50

COc1cc2cc(OC(C)=O)c3cc4c(cc3c2c(OC)c1OC)OCO4
inactive: SF-268 > 100 µM | NCI-H522 > 100 µM | HOP-62 > 100 µM | UACC-257 > 100 µM | NCI-H23 > 100 µM | NCI-H460 > 100 µM | LOX IMVI > 100 µM | Malme-3M > 100 µM | HCC 2998 > 100 µM | HL-60 > 100 µM | KM12 > 100 µM | SK-OV-3 > 100 µM | IGROV-1 > 100 µM | UO-31 > 100 µM | SF-539 > 100 µM | NCI-H226 > 100 µM

CC1(C)C(c2ccccc2)C12CCC1(C2=O)C(c2ccccc2)C1(C)C (configuration not stated)
inactive: SF-268 29.4 µM | NCI-H522 13.5 µM | HOP-62 26.1 µM | UACC-257 17.9 µM | RPMI-8226 14.3 µM | NCI-H23 18.9 µM | CAKI-1 23.1 µM | LOX IMVI 20.2 µM | Malme-3M 26.7 µM | HCC 2998 18.4 µM | HL-60 20.1 µM | KM12 > 10 µM | IGROV-1 31.8 µM | UO-31 19.9 µM | SF-539 26.8 µM | NCI-H226 17.9 µM

N=c1c2ccccc2nc2oc3ccccc3n12
inactive: SF-268 14.9 µM | HOP-62 23.2 µM | UACC-257 68.1 µM | RPMI-8226 > 100 µM | NCI-H23 35.2 µM | NCI-H460 > 10 µM | CAKI-1 44.4 µM | LOX IMVI 53.8 µM | Malme-3M 41.1 µM | HCC 2998 > 100 µM | HL-60 > 100 µM | SK-OV-3 40.6 µM | IGROV-1 20.6 µM | UO-31 > 100 µM | SF-539 37.2 µM

Cc1cc(Cl)ccc1NC(=O)CC1SC(N)=NC1=O (configuration not stated)
inactive: SF-268 > 100 µM | NCI-H522 > 100 µM | HOP-62 > 100 µM | UACC-257 > 100 µM | RPMI-8226 > 100 µM | NCI-H23 > 100 µM | NCI-H460 > 100 µM | CAKI-1 > 100 µM | LOX IMVI > 100 µM | Malme-3M > 100 µM | HCC 2998 > 100 µM | HL-60 > 100 µM | KM12 > 100 µM | SK-OV-3 > 100 µM | IGROV-1 > 100 µM | UO-31 > 100 µM | SF-539 > 100 µM | NCI-H226 > 100 µM

N=C(NC(=S)N1CCCCC1)N1CCCCC1
inactive: SF-268 > 100 µM | NCI-H522 > 100 µM | HOP-62 > 100 µM | UACC-257 > 100 µM | RPMI-8226 > 100 µM | NCI-H23 > 100 µM | NCI-H460 > 100 µM | CAKI-1 > 100 µM | LOX IMVI > 100 µM | Malme-3M > 100 µM | HCC 2998 > 100 µM | HL-60 > 100 µM | KM12 > 100 µM | SK-OV-3 > 100 µM | IGROV-1 > 100 µM | UO-31 > 100 µM | SF-539 > 100 µM | NCI-H226 5.71 µM

C(=C\c1ccc2ccccc2c1Nc1ccccc1)/c1ccccc1
inactive: SF-268 36.2 µM | NCI-H522 41.6 µM | HOP-62 20.1 µM | UACC-257 > 75 µM | RPMI-8226 25.1 µM | NCI-H23 19.9 µM | NCI-H460 27.9 µM | CAKI-1 23.2 µM | LOX IMVI > 66.4 µM | Malme-3M 33.2 µM | HCC 2998 > 70.5 µM | HL-60 > 100 µM | KM12 51.3 µM | SK-OV-3 29.8 µM | IGROV-1 31 µM | UO-31 29.8 µM | SF-539 32.2 µM | NCI-H226 33.2 µM

O=C1[C@@H](c2ccc(Cl)cc2)[C@H]2CC=C[C@H]2N1O
inactive: SF-268 > 100 µM | NCI-H522 71.1 µM | HOP-62 > 100 µM | UACC-257 > 100 µM | RPMI-8226 > 100 µM | NCI-H23 > 100 µM | CAKI-1 > 100 µM | LOX IMVI > 100 µM | Malme-3M > 100 µM | HCC 2998 52.8 µM | HL-60 > 100 µM | KM12 > 100 µM | SK-OV-3 > 100 µM | IGROV-1 > 100 µM | UO-31 89.7 µM | SF-539 > 100 µM | NCI-H226 > 100 µM

CC1(C)O[C@H]2[C@H](O)C[C@](O)(CO)C[C@H]2O1
inactive: NCI-H522 > 100 µM | UACC-257 > 100 µM | RPMI-8226 > 100 µM | NCI-H23 > 100 µM | NCI-H460 > 100 µM | CAKI-1 > 100 µM | Malme-3M > 100 µM | KM12 > 100 µM | SK-OV-3 > 100 µM | IGROV-1 > 100 µM | UO-31 > 100 µM | SF-539 > 100 µM | NCI-H226 > 100 µM

CC1=C2C(c3ccccc3)(c3ccccc3)C3C=CC2(C=N3)N(C(=O)NC2CCCCC2)C1=O (configuration not stated)
inactive: SF-268 17.4 µM | HOP-62 17.5 µM | UACC-257 17.1 µM | RPMI-8226 15.9 µM | NCI-H23 18.4 µM | CAKI-1 12.6 µM | LOX IMVI 15.7 µM | Malme-3M 17.4 µM | HCC 2998 17.9 µM | HL-60 14.7 µM | KM12 18.1 µM | SK-OV-3 28.7 µM | IGROV-1 18.9 µM | UO-31 14.3 µM | SF-539 15.9 µM

CCNC1=Nc2ccc(Cl)cc2C(c2ccccc2)=NN1
inactive: SF-268 31.3 µM | NCI-H522 14.6 µM | HOP-62 24.6 µM | UACC-257 18 µM | RPMI-8226 29 µM | NCI-H23 27.5 µM | CAKI-1 15 µM | LOX IMVI 18.9 µM | Malme-3M 16.9 µM | HCC 2998 18.7 µM | HL-60 22.3 µM | KM12 12.9 µM | SK-OV-3 37.1 µM | IGROV-1 22.4 µM | UO-31 30.2 µM | SF-539 19.8 µM | NCI-H226 20.7 µM

C/C(CCn1[nH]c(=O)ccc1=O)=N\Nc1ccc([N+](=O)[O-])cc1[N+](=O)[O-]
inactive: SF-268 > 100 µM | HOP-62 > 100 µM | UACC-257 > 100 µM | RPMI-8226 > 100 µM | NCI-H23 > 100 µM | NCI-H460 37 µM | CAKI-1 > 100 µM | LOX IMVI 26.8 µM | Malme-3M > 100 µM | HCC 2998 > 100 µM | HL-60 > 100 µM | KM12 33.5 µM | IGROV-1 > 100 µM | UO-31 12.7 µM | SF-539 95.5 µM | NCI-H226 > 100 µM

Cc1ccc(C2=C(c3ccccc3)C(O)(c3ccccc3)C(c3ccccc3)=C2c2ccc(C)cc2)cc1
inactive: SF-268 > 100 µM | NCI-H522 > 100 µM | HOP-62 > 100 µM | UACC-257 > 100 µM | RPMI-8226 35.7 µM | NCI-H23 69.3 µM | NCI-H460 > 100 µM | Malme-3M > 100 µM | HCC 2998 > 100 µM | KM12 > 100 µM | SK-OV-3 > 100 µM | IGROV-1 > 100 µM | UO-31 78.7 µM | SF-539 > 100 µM | NCI-H226 > 100 µM

CC(C)(C)c1cc(-c2c3nc(c(-c4cc(C(C)(C)C)cc(C(C)(C)C)c4)c4ccc([nH]4)c(-c4cc(C(C)(C)C)cc(C(C)(C)C)c4)c4nc(c(-c5cc(C(C)(C)C)cc(C(C)(C)C)c5)c5ccc2[nH]5)C=C4)C=C3)cc(C(C)(C)C)c1
inactive: SF-268 > 100 µM | NCI-H522 > 100 µM | HOP-62 > 100 µM | UACC-257 > 100 µM | RPMI-8226 > 100 µM | NCI-H23 > 100 µM | NCI-H460 > 100 µM | CAKI-1 > 100 µM | LOX IMVI > 100 µM | Malme-3M > 100 µM | HCC 2998 > 100 µM | HL-60 > 100 µM | KM12 > 100 µM | SK-OV-3 > 100 µM | IGROV-1 > 100 µM | UO-31 > 100 µM | SF-539 > 100 µM | NCI-H226 > 100 µM

ON=C1CCC(c2ccccc2)CC1 (configuration not stated)
inactive: SF-268 > 100 µM | NCI-H522 > 100 µM | HOP-62 > 100 µM | UACC-257 > 100 µM | NCI-H23 > 100 µM | NCI-H460 > 100 µM | CAKI-1 > 100 µM | LOX IMVI > 100 µM | Malme-3M > 100 µM | HCC 2998 > 100 µM | HL-60 > 100 µM | KM12 > 100 µM | SK-OV-3 > 100 µM | IGROV-1 > 100 µM | UO-31 > 100 µM | SF-539 > 100 µM | NCI-H226 > 100 µM

c1ccc([B-]23Oc4ccccc4[NH+]2c2ccccc2O3)cc1 (configuration not stated)
inactive: SF-268 > 100 µM | NCI-H522 16.2 µM | HOP-62 > 100 µM | UACC-257 > 100 µM | RPMI-8226 23.9 µM | NCI-H23 > 100 µM | CAKI-1 > 100 µM | LOX IMVI 62.2 µM | Malme-3M > 100 µM | HL-60 17.5 µM | KM12 77.6 µM | SK-OV-3 > 100 µM | IGROV-1 > 100 µM | SF-539 > 100 µM | NCI-H226 > 100 µM

C=C(C)[C@H](O)C(O)CC(C)[C@@H]1CCC23CC12CCC1[C@@]2(C)CCC(OC(C)=O)C(C)(C)C2CC(OC2OC(COC(C)=O)C(O)C(O)C2O)[C@]13C (some centres not stated)
inactive: SF-268 5.31 µM | NCI-H522 4.35 µM | HOP-62 6.92 µM | UACC-257 6.01 µM | RPMI-8226 1.5 µM | NCI-H23 7.59 µM | NCI-H460 4.78 µM | CAKI-1 6.22 µM | LOX IMVI 4.86 µM | Malme-3M 7.91 µM | HCC 2998 6.35 µM | HL-60 1.62 µM | KM12 5.47 µM | SK-OV-3 8 µM | IGROV-1 3.78 µM | UO-31 8.18 µM | SF-539 6.67 µM | NCI-H226 5.45 µM
